# Source: ChEMBL document CHEMBL4346715, “Antibacterial activity study of 1,2,4-triazole derivatives” (Eur J Med Chem, 2019)
# Experiments:
# Plasmodium falciparum = assay: Antiplasmodial activity against Plasmodium falciparum; format: functional, organism-based
# Pseudomonas aeruginosa [1] = assay: Antibacterial activity against Pseudomonas aeruginosa ATCC 27853 after 24 hrs by broth microdilution method; format: functional; settings: ATCC 27853, 24 h
# Listeria monocytogenes [2] = assay: Potency index, ratio of ciprofloxacin MIC to test compound MIC for Listeria monocytogenes ATCC 35152 after 24 hrs by broth microdilution method; format: functional
# Listeria monocytogenes [3] = assay: Antibacterial activity against Listeria monocytogenes ATCC 35152 after 24 hrs by broth microdilution method; format: functional; settings: ATCC 35152, 24 h
# Pseudomonas aeruginosa [4] = assay: Potency index, ratio of ciprofloxacin MIC to test compound MIC for Pseudomonas aeruginosa ATCC 27853 after 24 hrs by broth microdilution method; format: functional
# Bacillus subtilis [5] = assay: Antibacterial activity against Bacillus subtilis incubated for 18 hrs post 30 mins pre-diffusion by disk diffusion method; format: functional
# Listeria innocua = assay: Antibacterial activity against Listeria innocua incubated for 18 hrs post 30 mins pre-diffusion by disk diffusion method; format: functional
# Escherichia coli [6] = assay: Antibacterial activity against Escherichia coli incubated for 18 hrs post 30 mins pre-diffusion by disk diffusion method; format: functional
# Micrococcus luteus = assay: Antibacterial activity against Micrococcus luteus incubated for 18 hrs post 30 mins pre-diffusion by disk diffusion method; format: functional
# Staphylococcus aureus [7] = assay: Antibacterial activity against methicillin-resistant Staphylococcus aureus incubated for 18 hrs post 30 mins pre-diffusion by disk diffusion method; format: functional
# Bacillus anthracis = assay: Antibacterial activity against Bacillus anthracis incubated for 18 hrs post 30 mins pre-diffusion by disk diffusion method; format: functional
# Bacillus cereus = assay: Antibacterial activity against Bacillus cereus ATCC 10876 after 24 hrs by microdilution method; format: functional; settings: ATCC 10876, 24 h
# Escherichia coli [8] = assay: Antibacterial activity against Escherichia coli ATCC 25922 after 24 hrs by microdilution method; format: functional; settings: ATCC 25922, 24 h
# Enterococcus faecalis = assay: Antibacterial activity against Enterococcus faecalis ATCC 29212 after 24 hrs by microdilution method; format: functional; settings: ATCC 29212, 24 h
# Staphylococcus aureus [9] = assay: Antibacterial activity against Staphylococcus aureus ATCC 25923 after 24 hrs by microdilution method; format: functional; settings: ATCC 25923, 24 h
# Candida albicans [10] = assay: Antifungal activity against Candida albicans ATCC 50193 after 24 hrs by microdilution method; format: functional; settings: ATCC 50193, 24 h
# Pseudomonas aeruginosa [11] = assay: Antibacterial activity against Pseudomonas aeruginosa ATCC 27853 after 24 hrs by microdilution method; format: functional; settings: ATCC 27853, 24 h
# Aspergillus brasiliensis = assay: Antifungal activity against Aspergillus brasiliensis ATCC 16404 after 24 hrs by microdilution method; format: functional; settings: ATCC 16404, 24 h
# Proteus mirabilis = assay: Antibacterial activity against Proteus mirabilis ATCC 35659 after 24 hrs by microdilution method; format: functional; settings: ATCC 35659, 24 h
# Staphylococcus aureus [12] = assay: Antibacterial activity against Staphylococcus aureus incubated for 18 hrs post 30 mins pre-diffusion by disk diffusion method; format: functional
# Aspergillus niger = assay: Antifungal activity against Aspergillus niger; format: functional
# Candida albicans [13] = assay: Antifungal activity against Candida albicans; format: functional
# Escherichia coli [14] = assay: Antibacterial activity against Escherichia coli assessed as zone of inhibition; format: functional
# Bacillus subtilis [15] = assay: Antibacterial activity against Bacillus subtilis assessed as zone of inhibition; format: functional
# Salmonella typhimurium = assay: Antibacterial activity against Salmonella typhimurium assessed as zone of inhibition; format: functional, Salmonella enterica subsp. enterica serovar Typhimurium
# Staphylococcus aureus [16] = assay: Antibacterial activity against Staphylococcus aureus assessed as zone of inhibition; format: functional
Molecule,MIC (Staphylococcus aureus [7]),MIC (Bacillus anthracis),MIC (Bacillus cereus),MIC (Escherichia coli [8]),MIC (Enterococcus faecalis),MIC (Staphylococcus aureus [9]),MIC (Candida albicans [10]),MIC (Pseudomonas aeruginosa [11]),MIC (Aspergillus brasiliensis),MIC (Proteus mirabilis),other results
C=C[C@H]1CN2CC[C@H]1C[C@H]2[C@H](O)c1ccnc2ccc(OC)cc12 [QUININE],,,,,,,,,,,IC50 (Plasmodium falciparum): 0.268 µg/mL
Cc1nc(-c2ccccc2)sc1-c1nnc(S)n1/N=C/c1cccs1,,,,,,,,,,,MIC (Pseudomonas aeruginosa [1]): 1.95 µg/mL; Ratio (Listeria monocytogenes [2]): 2; MIC (Listeria monocytogenes [3]): 1.95 µg/mL; Ratio (Pseudomonas aeruginosa [4]): 2
Cc1nc(-c2ccccc2)sc1-c1nnc(S)n1/N=C/c1ccc([N+](=O)[O-])cc1,,,,,,,,,,,MIC (Pseudomonas aeruginosa [1]): 1.95 µg/mL; Ratio (Listeria monocytogenes [2]): 2; MIC (Listeria monocytogenes [3]): 1.95 µg/mL; Ratio (Pseudomonas aeruginosa [4]): 2
COC(=O)c1ncn(CNCn2cnc(C(=O)OC)n2)n1,,,,,,,,,,,MIC (Bacillus subtilis [5]): 7 to 15 µg/mL; MIC (Listeria innocua): 7 to 15 µg/mL; MIC (Escherichia coli [6]): 7 to 15 µg/mL; MIC (Micrococcus luteus): 7 to 15 µg/mL
POLYMYXIN B,31 to 1000 µg/mL,31 to 1000 µg/mL,,,,,,,,,
CN[C@H](CC(C)C)C(=O)N[C@H]1C(=O)N[C@@H](CC(N)=O)C(=O)N[C@H]2C(=O)N[C@H]3C(=O)N[C@H](C(=O)N[C@H](C(=O)O)c4cc(O)cc(O)c4-c4cc3ccc4O)[C@H](O)c3ccc(c(Cl)c3)Oc3cc2cc(c3O[C@@H]2O[C@H](CO)[C@@H](O)[C@H](O)[C@H]2O[C@H]2C[C@](C)(N)[C@H](O)[C@H](C)O2)Oc2ccc(cc2Cl)[C@H]1O [VANCOMYCIN],8 µg/mL,8 µg/mL,,,,,,,,,
CO[C@H]1/C=C/O[C@@]2(C)Oc3c(C)c(O)c4c(O)c(c(/C=N/N5CCN(C)CC5)c(O)c4c3C2=O)NC(=O)/C(C)=C\C=C\[C@H](C)[C@H](O)[C@@H](C)[C@@H](O)[C@@H](C)[C@H](OC(C)=O)[C@@H]1C [RIFAMPIN],31 to 1000 µg/mL,31 to 1000 µg/mL,,,,,,,,,
CCCCCCCCCCCCCCCCn1nnc(-c2n[nH]c(=S)n2N)c1-c1n[nH]c(=S)n1N,,,1 to 128 µg/mL,1 to 128 µg/mL,1 to 128 µg/mL,1 to 128 µg/mL,1 to 128 µg/mL,1 to 128 µg/mL,1 to 128 µg/mL,1 to 128 µg/mL,
COc1ccccc1/C=N/n1c(S)nnc1-c1sc(-c2ccccc2)nc1C,,,,,,,,,,,MIC (Pseudomonas aeruginosa [1]): 1.95 µg/mL; Ratio (Listeria monocytogenes [2]): 2; MIC (Listeria monocytogenes [3]): 1.95 µg/mL; Ratio (Pseudomonas aeruginosa [4]): 2
CCCCCCCCCCCCCCn1nnc(-c2n[nH]c(=S)n2-c2ccccc2)c1-c1n[nH]c(=S)n1-c1ccccc1,,,1 to 128 µg/mL,1 to 128 µg/mL,1 to 128 µg/mL,1 to 128 µg/mL,1 to 128 µg/mL,1 to 128 µg/mL,1 to 128 µg/mL,1 to 128 µg/mL,
CCCCCCCCCCCCCCCCn1nnc(-c2n[nH]c(=S)n2-c2ccccc2)c1-c1n[nH]c(=S)n1-c1ccccc1,,,1 to 128 µg/mL,1 to 128 µg/mL,1 to 128 µg/mL,1 to 128 µg/mL,1 to 128 µg/mL,1 to 128 µg/mL,1 to 128 µg/mL,1 to 128 µg/mL,
FC(F)(F)c1cc(-c2nnc(Sc3cc(Cl)nc(Sc4ccccc4)n3)[nH]2)cc(C(F)(F)F)c1,0.75 to 1.8 µg/mL,0.75 to 1.8 µg/mL,,,,,,,,,MIC (Escherichia coli [6]): 1.8 µg/mL; MIC (Staphylococcus aureus [12]): 3.1 µg/mL
OC(Cn1cncn1)(Cn1cncn1)c1ccc(F)cc1F [FLUCONAZOLE],,,4 µg/mL,4 µg/mL,4 µg/mL,4 µg/mL,1 µg/mL,4 µg/mL,1 µg/mL,4 µg/mL,MIC (Aspergillus niger): 9.4 µg/mL; MIC (Candida albicans [13]): 10.2 µg/mL
CCCCCCCCCCn1nnc(-c2n[nH]c(=S)n2-c2ccccc2)c1-c1n[nH]c(=S)n1-c1ccccc1,,,1 to 128 µg/mL,1 to 128 µg/mL,1 to 128 µg/mL,1 to 128 µg/mL,1 to 128 µg/mL,1 to 128 µg/mL,1 to 128 µg/mL,1 to 128 µg/mL,
CC(C)N(Cc1ncn(C)n1)Cc1ncn(C)n1,,,,,,,,,,,MIC (Bacillus subtilis [5]): 7 to 15 µg/mL; MIC (Listeria innocua): 7 to 15 µg/mL; MIC (Escherichia coli [6]): 7 to 15 µg/mL; MIC (Micrococcus luteus): 7 to 15 µg/mL
CN(C)[C@@H]1C(O)=C(C(N)=O)C(=O)[C@@]2(O)C(O)=C3C(=O)c4c(O)cccc4[C@@](C)(O)[C@H]3C[C@@H]12 [TETRACYCLINE],31 to 1000 µg/mL,31 to 1000 µg/mL,,,,,,,,,inhibition zone (IZ) (Escherichia coli [14]): 14 - 17 mm; MIC (Bacillus subtilis [5]): 20 to 21 µg/mL; MIC (Listeria innocua): 20 to 21 µg/mL; inhibition zone (IZ) (Bacillus subtilis [15]): 14 - 17 mm; MIC (Escherichia coli [6]): 20 to 21 µg/mL; inhibition zone (IZ) (Salmonella typhimurium): 14 - 17 mm; inhibition zone (IZ) (Staphylococcus aureus [16]): 14 - 17 mm; MIC (Micrococcus luteus): 20 to 21 µg/mL
